ChEMBL document CHEMBL3044676, “Effect of Antibiotics on Formation of Aerial Mycelium and Production of Phytotoxins in Streptomyces spp” (2003)
Calls of active or inactive are those of the source. No cut-off for these calls is given here.

Assays:
[1] = tested on: Streptomyces alboniger; experiment: Antimicrobial activity against Streptomyces alboniger IFO 12738 assessed as inhibition of aerial mycelial growth at 4 ug/disk after 5 days by paper disk method; format: functional; conditions: for zone of inhibition at 4 µg/disc: IFO 12738, 120 h, read-out: DIZ
[2] = tested on: Streptomyces alboniger; experiment: Antimicrobial activity against Streptomyces alboniger IFO 12738 assessed as inhibition of aerial mycelial growth at 0.4 ug/disk after 5 days by paper disk method; format: functional; conditions: for zone of inhibition at 0.4 µg/disc: IFO 12738, 120 h, read-out: DIZ
[3] = tested on: Streptomyces acidiscabies; experiment: Antimicrobial activity against Streptomyces acidiscabies ATCC 4900315 assessed as inhibition of aerial mycelial growth at 4 ug/disk after 5 days by paper disk method; format: functional; conditions: for zone of inhibition at 4 µg/disc: ATCC 4900315, 120 h, read-out: DIZ
[4] = tested on: Streptomyces acidiscabies; experiment: Antimicrobial activity against Streptomyces acidiscabies ATCC 4900315 assessed as inhibition of aerial mycelial growth at 0.04 ug/disk after 5 days by paper disk method; format: functional
[5] = tested on: Streptomyces scabiei; experiment: Antimicrobial activity against Streptomyces scabiei ATCC 4917314 assessed as inhibition of aerial mycelial growth at 4 ug/disk after 5 days by paper disk method; format: functional; conditions: for zone of inhibition at 4 µg/disc: ATCC 4917314, 120 h, read-out: DIZ
[6] = tested on: Streptomyces scabiei; experiment: Antimicrobial activity against Streptomyces scabiei ATCC 4917314 assessed as inhibition of aerial mycelial growth at 0.04 ug/disk after 5 days by paper disk method; format: functional; conditions: for zone of inhibition at 0.04 µg/disc: ATCC 4917314, 120 h, read-out: DIZ
[7] = tested on: Streptomyces acidiscabies; experiment: Antimicrobial activity against Streptomyces acidiscabies ATCC 4900315 assessed as inhibition of aerial mycelial growth at 0.4 ug/disk after 5 days by paper disk method; format: functional; conditions: for zone of inhibition at 0.4 µg/disc: ATCC 4900315, 120 h, read-out: DIZ
[8] = tested on: Streptomyces alboniger; experiment: Antimicrobial activity against Streptomyces alboniger IFO 12738 assessed as inhibition of aerial mycelial growth at 0.04 ug/disk after 5 days by paper disk method; format: functional, organism-based
[9] = tested on: Streptomyces scabiei; experiment: Antimicrobial activity against Streptomyces scabiei ATCC 4917314 assessed as inhibition of aerial mycelial growth at 0.40 ug/disk after 5 days by paper disk method; format: functional; conditions: for zone of inhibition at 0.4 µg/disc: ATCC 4917314, 120 h, read-out: DIZ
[10] = tested on: Streptomyces scabiei; experiment: Antimicrobial activity against Streptomyces scabiei ATCC 4917314 assessed as inhibition of growth at 4 ug/disk after 5 days by paper disk method; format: functional; conditions: ATCC 4917314, 120 h, read-out: DIZ
[11] = tested on: Streptomyces acidiscabies; experiment: Antimicrobial activity against Streptomyces acidiscabies ATCC 4900315 assessed as inhibition of growth at 4 ug/disk after 5 days by paper disk method; format: functional; conditions: for zone of inhibition at 4 µg/disc: ATCC 4900315, 120 h, read-out: DIZ
[12] = tested on: Streptomyces alboniger; experiment: Antimicrobial activity against Streptomyces alboniger IFO 12738 assessed as inhibition of growth at 4 ug/disk after 5 days by paper disk method; format: functional; conditions: IFO 12738, 120 h, read-out: DIZ
[13] = tested on: Streptomyces alboniger; experiment: Antimicrobial activity against Streptomyces alboniger IFO 12738 assessed as inhibition of growth at 0.4 ug/disk after 5 days by paper disk method; format: functional; conditions: IFO 12738, 120 h, read-out: DIZ
[14] = tested on: Streptomyces scabiei; experiment: Antimicrobial activity against Streptomyces scabiei ATCC 4917314 assessed as inhibition of growth at 0.4 ug/disk after 5 days by paper disk method; format: functional; conditions: for zone of inhibition at 0.4 µg/disc: ATCC 4917314, 120 h, read-out: DIZ

SMILES	diameter of the inhibition zone (DIZ) [1]	diameter of the inhibition zone (DIZ) [2]	zone of inhibition at 4 µg/disc [3] [mm]	zone of inhibition at 4 µg/disc [5] [mm]	diameter of the inhibition zone (DIZ) [6]	zone of inhibition at 0.4 µg/disc [7] [mm]	diameter of the inhibition zone (DIZ) [8]	diameter of the inhibition zone (DIZ) [9]	zone of inhibition at 4 µg/disc [10] [mm]	diameter of the inhibition zone (DIZ) [4]	zone of inhibition at 4 µg/disc [11] [mm]	zone of inhibition at 0.4 µg/disc [9] [mm]	diameter of the inhibition zone (DIZ) [7]	other results
CO[C@@H]1[C@H](O)C[C@@H](O[C@@H]2C[C@H](Oc3cc4cc5c(c(O)c4c(O)c3C)C(=O)[C@@H](O[C@H]3C[C@@H](O[C@H]4C[C@@H](O[C@H]6C[C@](C)(O)[C@@H](OC(C)=O)[C@H](C)O6)[C@H](O)[C@@H](C)O4)[C@H](O)[C@@H](C)O3)[C@H]([C@H](OC)C(=O)[C@@H](O)[C@@H](C)O)C5)O[C@H](C)[C@@H]2OC(C)=O)O[C@@H]1C [CHROMOMYCIN A3]	inactive	inactive	26	11	inactive	19	inactive	inactive						zone of inhibition at 0.04 µg/disc ([4]; ATCC 4900315, 120 h, read-out: DIZ): 13 mm
CN(C)[C@@H]1C(O)=C(C(N)=O)C(=O)[C@@]2(O)C(O)=C3C(=O)c4c(O)cccc4[C@@](C)(O)[C@H]3[C@H](O)[C@@H]12 [OXYTETRACYCLINE]	inactive	inactive		37		16	inactive		13	inactive	34	13		diameter of the inhibition zone (DIZ) [3]: inactive; zone of inhibition at 0.04 µg/disc [6]: 10 mm
CCC[C@@H]1C[C@@H](C(=O)N[C@@H]([C@H]2O[C@H](SC)[C@H](O)[C@@H](O)[C@H]2O)[C@@H](C)O)N(C)C1 [LINCOMYCIN]				40						inactive		34	inactive	zone of inhibition at 4 µg/disc [1]: 40 mm; zone of inhibition at 0.4 µg/disc [2]: 18 mm; diameter of the inhibition zone (DIZ) [3]: inactive; zone of inhibition at 0.04 µg/disc [6]: 20 mm; zone of inhibition at 4 µg/disc [12]: 12 mm
CO[C@H]1/C=C/O[C@@]2(C)Oc3c(C)c(O)c4c(O)c(cc(O)c4c3C2=O)NC(=O)/C(C)=C\C=C\[C@H](C)[C@H](O)[C@@H](C)[C@@H](O)[C@@H](C)[C@H](OC(C)=O)[C@@H]1C [RIFAMYCIN]			12	11	inactive		inactive	inactive		inactive			inactive	zone of inhibition at 0.4 µg/disc [2]: 21 mm; zone of inhibition at 0.4 µg/disc [13]: 11 mm; diameter of the inhibition zone (DIZ) [14]: inactive; diameter of the inhibition zone (DIZ) [11]: inactive
CC1(C)S[C@@H]2[C@H](NC(=O)[C@H](N)c3ccccc3)C(=O)N2[C@H]1C(=O)O [AMPICILLIN]		inactive	16	16	inactive		inactive	inactive		inactive			inactive	diameter of the inhibition zone (DIZ) [11]: inactive
COc1ccc(C[C@H](N)C(=O)N[C@H]2[C@@H](O)[C@H](n3cnc4c(N(C)C)ncnc43)O[C@@H]2CO)cc1 [PUROMYCIN]	inactive	inactive	20		inactive		inactive	inactive		inactive			inactive	diameter of the inhibition zone (DIZ) [5]: inactive
O=C(N[C@H](CO)[C@H](O)c1ccc([N+](=O)[O-])cc1)C(Cl)Cl [CHLORAMPHENICOL]		inactive	10	29	inactive		inactive		15	inactive		13	inactive	zone of inhibition at 4 µg/disc [1]: 44 mm; zone of inhibition at 4 µg/disc [12]: 16 mm
CN[C@@H]1[C@H](O[C@H]2[C@H](O[C@H]3[C@H](O)[C@@H](O)[C@H](N=C(N)N)[C@@H](O)[C@@H]3N=C(N)N)O[C@@H](C)[C@]2(O)C=O)O[C@@H](CO)[C@H](O)[C@H]1O [STREPTOMYCIN]	inactive	inactive		28	inactive		inactive		18	inactive		19	inactive	diameter of the inhibition zone (DIZ) [3]: inactive; zone of inhibition at 0.4 µg/disc [13]: 15 mm; zone of inhibition at 0.4 µg/disc [14]: 13 mm
CN(CC[C@H](N)CC(=O)N[C@H]1CC[C@H](n2ccc(N)nc2=O)O[C@@H]1C(=O)O)C(=N)N [BLASTADIN S]	inactive	inactive	9	23	inactive		inactive			inactive		10	inactive	
N=C(N)NCC(O)CC(O)(C(=O)O)[C@@H]1O[C@@H](N2C=C(CO)C(N)=NC2O)C=C[C@@H]1NC(=O)[C@@H](N)CO (stereo not given in full) [MILDIOMYCIN]	inactive	inactive	28		inactive	11	inactive			inactive	22	12		diameter of the inhibition zone (DIZ) [5]: inactive
C[C@@H]1O[C@@H]1P(=O)(O)O [FOSFOMYCIN]	inactive	inactive		17			inactive			inactive		16	inactive	diameter of the inhibition zone (DIZ) [3]: inactive; zone of inhibition at 0.04 µg/disc [6]: 16 mm
CO[C@@H]1[C@@H](OC(N)=O)[C@@H](O)[C@H](Oc2ccc3c(O)c(NC(=O)c4ccc(O)c(CC=C(C)C)c4)c(=O)oc3c2C)OC1(C)C [NOVOBIOCIN]			39	44	inactive	14	inactive		26	inactive	18	28		zone of inhibition at 0.4 µg/disc [2]: 11 mm; zone of inhibition at 0.4 µg/disc [14]: 17 mm; zone of inhibition at 4 µg/disc [12]: 21 mm
C=C(NC(=O)C(=C)NC(=O)c1csc(C2=N[C@@H]3c4csc(n4)[C@H]4NC(=O)c5csc(n5)[C@H]([C@](C)(O)[C@@H](C)O)NC(=O)[C@H]5CSC(=N5)/C(=C/C)NC(=O)[C@H]([C@@H](C)O)NC(=O)c5csc(n5)[C@]3(CC2)NC(=O)[C@H](C)NC(=O)C(=C)NC(=O)[C@H](C)NC(=O)[C@H]([C@@H](C)CC)N[C@@H]2C=Cc3c([C@H](C)O)cc(nc3[C@H]2O)C(=O)O[C@@H]4C)n1)C(N)=O [THIOSTREPTON]	inactive	inactive	24	12	inactive	11	inactive	inactive		inactive	13			zone of inhibition at 0.4 µg/disc [13]: 14 mm
CO[C@@H]1[C@@H](O[C@@H]2O[C@H](C)[C@@H](O[C@H]3C[C@@](C)(O)[C@@H](OC(=O)CC(C)C)[C@H](C)O3)[C@H](N(C)C)[C@H]2O)[C@@H](CC=O)C[C@@H](C)[C@@H](O)/C=C/C=C/C[C@@H](C)OC(=O)C[C@H]1OC(C)=O [JOSAMYCIN]		inactive	17	29		13	inactive		21	inactive	10	17		zone of inhibition at 4 µg/disc [1]: 15 mm; zone of inhibition at 0.04 µg/disc [6]: 15 mm; zone of inhibition at 0.4 µg/disc [14]: 11 mm; zone of inhibition at 4 µg/disc [12]: 14 mm
